According to patent US20210330659A1, “USE OF NICOTINAMIDE COMPOSITION IN PREPARATION OF DRUG FOR TREATING HAND-FOOT SKIN REACTION INDUCED BY SORAFENIB” (ZHEJIANG UNIVERSITY, priority 2018, published 2021):

Assays:
[1] = tested on: keratin 1, keratin 10 and Loricrin in HaCaT cells; experiment: mRNA levels of keratinization indicators in HaCaT cells given HUVEC conditioned medium; format: cell-based
Description: (§1) HUVEC cells were administrated with 15 μM sorafenib. After that, the cells and the culture medium were separately collected, and the culture medium is concentrated. […] HUVEC culture medium treated with sorafenib, as a conditioned medium, was applied to HaCaT cells, and the expression of SIRT1 in the cells was detected. […] After HUVEC cells with HB-EGF knocked out were constructed, the culture medium obtained after administrated with sorafenib was administrated to the HaCaT cells, and mRNA levels of the keratinization progress indicators, i.e., keratin 1, keratin 10 and Loricrin, were detected. […] The HUVEC culture medium added with sorafenib, as the conditioned medium, was applied to the HaCaT cells in which SIRT1 was knocked out, and the mRNA levels of the three keratins were detected.
In an in vitro cell experimental model, HUVEC cells were administered with 15 μM sorafenib alone, and 15 μM sorafenib together with 10 μM nicotinamide, respectively. After 24 hours, the culture medium was collected as a conditioned medium for HaCaT cells, and the HaCaT cells were collected 24 hours later for the detection of mRNA levels of three keratins.

[2] = tested on: HB-EGF protein in HUVEC cells; experiment: Western blot of pro-HB-EGF in cell lysate and s-HB-EGF in culture medium of sorafenib-treated HUVEC cells; format: cell-based; conditions: 15 μM sorafenib, FIG. 1A
Description: as §1

SIRT1 in HaCaT cells = experiment: SIRT1 expression in HaCaT cells given sorafenib-treated HUVEC conditioned medium; format: cell-based; conditions: HaCaT cells given sorafenib-treated HUVEC culture medium as conditioned medium, FIG. 1B
Description: as §1

[3] = patients treated with sorafenib; cited from earlier work

| SMILES | mRNA levels of the three keratins (keratin 1, keratin 10, Loricrin) ([1]; HUVEC treated 24 h with 10 μM nicotinamide plus 15 μM sorafenib, medium applied to HaCaT for 24 h, compared with sorafenib alone, FIG. 2) | expression level of the HB-EGF protein in the cells (pro-HB-EGF, cell lysate) ([2]; HUVEC cells) | expression of HB-EGF protein in the culture medium (s-HB-EGF) ([2]; HUVEC culture medium, concentrated) | expression of SIRT1 in HaCaT cells (SIRT1 in HaCaT cells) | mRNA levels of keratin 1, keratin 10 and Loricrin ([1]; HaCaT cells given medium of sorafenib-treated HUVEC cells with HB-EGF knocked out, FIG. 1C) | mRNA levels of keratin 1, keratin 10 and Loricrin ([1]; SIRT1-knocked-out HaCaT cells given sorafenib-treated HUVEC conditioned medium, FIG. 1D) | prevalence of hand-foot skin reaction (HFSR) [3] |
| --- | --- | --- | --- | --- | --- | --- | --- |
| NC(=O)c1cccnc1 [nicotinamide, 3-pyridinecarboxamide] | significantly down-regulated | – | – | – | – | – | – |
| CNC(=O)c1cc(Oc2ccc(NC(=O)Nc3ccc(Cl)c(C(F)(F)F)c3)cc2)ccn1 [sorafenib] | – | down-regulated | increased | up-regulated | down-regulated | also down-regulated | up to 60% |
